We go through 3 molecules from US10870647B2, “Imidazopyridine derivative, method for preparing same, and pharmaceutical composition containing same as active ingredient for preventing or treating cancer” (DAEGU-GYEONGBUK MEDICAL INNOVATION FOUNDATION, priority 2016, dated 2020).

Common to all, as to test: Kinase selectivity, scanMAX Kinase assay panel (DiscoverX), % control at 1 uM
Holding throughout (format): binding

In test [1] the target is T1, scanMAX Kinase assay panel (Homo sapiens, UniProt Q9Y6R4).
T1 construct: purchased DiscoverX
The settings on record: MAP3K4; 1 uM; read-out: Percent Control (%). An outline of the steps:
(§1)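 Single-point screen at 1 uM compound in DMSO. Lower % control means stronger inhibition, with the cutoff for activity set at <35%.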

Test [2] addresses T2, scanMAX Kinase assay panel (Homo sapiens, UniProt P53779).
T2 construct: purchased DiscoverX
The settings on record: JNK3; 1 uM; read-out: Percent Control (%). An outline of the steps: as §1

Test [3] concerns the target T3, scanMAX Kinase assay panel (Homo sapiens, UniProt Q9H3Y6).
T3 construct: purchased DiscoverX
The conditions noted are these: SRMS; 1 uM; read-out: Percent Control (%). An outline of the steps:
as §1

Test [4] addresses T4, scanMAX Kinase assay panel (Homo sapiens, UniProt Q14004).
T4 construct: purchased DiscoverX
The settings on record: CDC2L5; 1 uM; read-out: Percent Control (%). In short, it runs like this: as §1

Test [5] addresses T5, scanMAX Kinase assay panel (Homo sapiens, UniProt Q92772).
T5 construct: purchased DiscoverX
T5 sequence (Q92772 1-493): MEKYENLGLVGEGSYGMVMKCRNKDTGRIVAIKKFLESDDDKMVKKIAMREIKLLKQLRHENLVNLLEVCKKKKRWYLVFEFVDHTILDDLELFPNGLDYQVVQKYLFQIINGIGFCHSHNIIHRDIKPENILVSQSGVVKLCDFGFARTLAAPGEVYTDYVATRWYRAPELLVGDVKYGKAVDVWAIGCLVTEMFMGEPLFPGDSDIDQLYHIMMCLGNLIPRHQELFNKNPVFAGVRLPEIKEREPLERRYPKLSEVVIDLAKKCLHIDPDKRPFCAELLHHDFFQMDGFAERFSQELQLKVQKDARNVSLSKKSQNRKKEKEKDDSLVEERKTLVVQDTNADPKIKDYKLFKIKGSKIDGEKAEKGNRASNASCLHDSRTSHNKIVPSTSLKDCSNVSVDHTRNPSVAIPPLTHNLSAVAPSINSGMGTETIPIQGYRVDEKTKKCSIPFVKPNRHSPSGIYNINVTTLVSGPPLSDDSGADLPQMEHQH
The settings on record: CDKL2; 1 uM; read-out: Percent Control (%). An outline of the steps:
as §1

Test [6] has as its target T6, scanMAX Kinase assay panel (Plasmodium falciparum, UniProt P61075).
T6 construct: purchased DiscoverX
The conditions noted are these: PFPK5 (P. falciparum); 1 uM; read-out: Percent Control (%). An outline of the steps:
as §1

In test [7] the target is T7, scanMAX Kinase assay panel (Homo sapiens, UniProt P22455).
T7 construct: purchased DiscoverX
The conditions noted are these: FGFR4; 1 uM; read-out: Percent Control (%). An outline of the steps: as §1

For test [8], the target named is T8, scanMAX Kinase assay panel (Homo sapiens, UniProt P07949, V804M).
T8 construct: purchased DiscoverX
The conditions noted are these: RET (V804M); 1 uM; read-out: Percent Control (%). In short, it runs like this: as §1

Test [9] addresses T9, scanMAX Kinase assay panel (Homo sapiens, UniProt P00533, G719S).
T9 construct: purchased DiscoverX
The settings on record: EGFR (G719S); 1 uM; read-out: Percent Control (%). In short, it runs like this: as §1

The target in test [10] is T10, scanMAX Kinase assay panel (Homo sapiens, UniProt Q32MK0).
T10 construct: purchased DiscoverX
T10 sequence (Q32MK0 1-819): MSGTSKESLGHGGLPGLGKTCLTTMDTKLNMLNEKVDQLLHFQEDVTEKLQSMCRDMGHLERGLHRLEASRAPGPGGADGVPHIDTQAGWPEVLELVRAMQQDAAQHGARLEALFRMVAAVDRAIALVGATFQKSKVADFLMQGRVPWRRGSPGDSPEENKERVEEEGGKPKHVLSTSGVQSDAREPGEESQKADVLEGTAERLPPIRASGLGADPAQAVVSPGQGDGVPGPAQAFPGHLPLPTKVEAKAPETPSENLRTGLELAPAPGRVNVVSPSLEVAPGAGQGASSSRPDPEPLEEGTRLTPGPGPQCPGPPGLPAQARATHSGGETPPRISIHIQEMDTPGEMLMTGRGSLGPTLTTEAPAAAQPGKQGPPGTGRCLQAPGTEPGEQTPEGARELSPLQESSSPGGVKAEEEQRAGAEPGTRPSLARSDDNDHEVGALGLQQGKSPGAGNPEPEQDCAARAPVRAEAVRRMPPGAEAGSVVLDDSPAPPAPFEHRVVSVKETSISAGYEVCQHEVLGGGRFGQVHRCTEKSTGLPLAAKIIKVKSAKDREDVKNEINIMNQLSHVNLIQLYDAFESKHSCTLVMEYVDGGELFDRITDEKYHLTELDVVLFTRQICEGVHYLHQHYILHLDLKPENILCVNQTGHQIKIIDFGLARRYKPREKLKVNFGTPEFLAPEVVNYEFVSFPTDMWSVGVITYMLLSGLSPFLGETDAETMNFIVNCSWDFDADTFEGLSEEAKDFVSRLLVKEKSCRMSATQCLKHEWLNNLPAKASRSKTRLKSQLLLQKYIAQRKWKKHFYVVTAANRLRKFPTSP
The conditions noted are these: MLCK; 1 uM; read-out: Percent Control (%). An outline of the steps: as §1

Test [11] has as its target T11, scanMAX Kinase assay panel (Homo sapiens, UniProt P00519, F317I).
T11 construct: purchased DiscoverX
The conditions noted are these: 1 uM, read-out: Percent Control (%). An outline of the steps:
as §1

Read-outs that look alike come from different tables or passages of the source.

T8 sequence (P07949 29-1114 V804M): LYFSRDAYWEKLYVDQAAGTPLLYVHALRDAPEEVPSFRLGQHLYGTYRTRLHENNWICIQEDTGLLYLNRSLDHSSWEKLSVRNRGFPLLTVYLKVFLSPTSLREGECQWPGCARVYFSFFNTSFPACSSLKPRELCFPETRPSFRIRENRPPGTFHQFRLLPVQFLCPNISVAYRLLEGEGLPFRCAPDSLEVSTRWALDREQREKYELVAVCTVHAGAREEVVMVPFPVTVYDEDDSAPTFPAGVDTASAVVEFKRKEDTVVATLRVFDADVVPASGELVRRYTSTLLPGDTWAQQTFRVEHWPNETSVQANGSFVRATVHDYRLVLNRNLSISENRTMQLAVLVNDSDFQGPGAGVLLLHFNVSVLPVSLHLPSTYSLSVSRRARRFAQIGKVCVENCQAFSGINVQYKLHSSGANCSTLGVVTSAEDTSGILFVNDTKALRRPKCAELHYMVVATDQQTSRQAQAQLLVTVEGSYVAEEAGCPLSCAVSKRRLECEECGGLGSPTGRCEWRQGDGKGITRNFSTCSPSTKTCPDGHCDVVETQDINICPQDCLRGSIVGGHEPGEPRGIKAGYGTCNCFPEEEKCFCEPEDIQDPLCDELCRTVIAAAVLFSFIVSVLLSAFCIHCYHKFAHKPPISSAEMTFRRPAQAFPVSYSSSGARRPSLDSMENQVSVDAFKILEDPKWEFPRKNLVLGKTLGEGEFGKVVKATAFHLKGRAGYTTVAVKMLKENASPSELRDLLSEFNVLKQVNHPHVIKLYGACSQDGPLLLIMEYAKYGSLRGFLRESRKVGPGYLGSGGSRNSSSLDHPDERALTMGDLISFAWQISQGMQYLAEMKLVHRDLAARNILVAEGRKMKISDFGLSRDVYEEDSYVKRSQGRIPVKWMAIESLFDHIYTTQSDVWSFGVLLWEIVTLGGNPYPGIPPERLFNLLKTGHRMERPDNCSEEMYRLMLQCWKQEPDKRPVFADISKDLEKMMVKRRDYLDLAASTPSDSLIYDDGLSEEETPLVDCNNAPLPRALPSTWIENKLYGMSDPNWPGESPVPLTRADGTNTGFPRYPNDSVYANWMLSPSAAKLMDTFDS
T3 sequence (Q9H3Y6 whole entry): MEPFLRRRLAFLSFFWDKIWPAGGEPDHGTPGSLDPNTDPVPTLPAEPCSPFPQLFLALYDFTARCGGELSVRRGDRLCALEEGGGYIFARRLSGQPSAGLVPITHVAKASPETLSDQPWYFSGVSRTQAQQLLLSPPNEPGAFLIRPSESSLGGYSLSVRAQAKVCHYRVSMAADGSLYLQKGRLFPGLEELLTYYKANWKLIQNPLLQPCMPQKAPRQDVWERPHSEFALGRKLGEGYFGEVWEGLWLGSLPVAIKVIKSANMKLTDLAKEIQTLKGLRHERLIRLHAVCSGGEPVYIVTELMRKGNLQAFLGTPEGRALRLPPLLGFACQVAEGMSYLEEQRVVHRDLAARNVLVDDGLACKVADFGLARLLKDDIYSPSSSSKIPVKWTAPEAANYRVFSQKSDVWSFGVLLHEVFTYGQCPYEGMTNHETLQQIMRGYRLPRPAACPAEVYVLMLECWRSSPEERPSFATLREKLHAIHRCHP
T11 sequence (P00519 whole entry F317I): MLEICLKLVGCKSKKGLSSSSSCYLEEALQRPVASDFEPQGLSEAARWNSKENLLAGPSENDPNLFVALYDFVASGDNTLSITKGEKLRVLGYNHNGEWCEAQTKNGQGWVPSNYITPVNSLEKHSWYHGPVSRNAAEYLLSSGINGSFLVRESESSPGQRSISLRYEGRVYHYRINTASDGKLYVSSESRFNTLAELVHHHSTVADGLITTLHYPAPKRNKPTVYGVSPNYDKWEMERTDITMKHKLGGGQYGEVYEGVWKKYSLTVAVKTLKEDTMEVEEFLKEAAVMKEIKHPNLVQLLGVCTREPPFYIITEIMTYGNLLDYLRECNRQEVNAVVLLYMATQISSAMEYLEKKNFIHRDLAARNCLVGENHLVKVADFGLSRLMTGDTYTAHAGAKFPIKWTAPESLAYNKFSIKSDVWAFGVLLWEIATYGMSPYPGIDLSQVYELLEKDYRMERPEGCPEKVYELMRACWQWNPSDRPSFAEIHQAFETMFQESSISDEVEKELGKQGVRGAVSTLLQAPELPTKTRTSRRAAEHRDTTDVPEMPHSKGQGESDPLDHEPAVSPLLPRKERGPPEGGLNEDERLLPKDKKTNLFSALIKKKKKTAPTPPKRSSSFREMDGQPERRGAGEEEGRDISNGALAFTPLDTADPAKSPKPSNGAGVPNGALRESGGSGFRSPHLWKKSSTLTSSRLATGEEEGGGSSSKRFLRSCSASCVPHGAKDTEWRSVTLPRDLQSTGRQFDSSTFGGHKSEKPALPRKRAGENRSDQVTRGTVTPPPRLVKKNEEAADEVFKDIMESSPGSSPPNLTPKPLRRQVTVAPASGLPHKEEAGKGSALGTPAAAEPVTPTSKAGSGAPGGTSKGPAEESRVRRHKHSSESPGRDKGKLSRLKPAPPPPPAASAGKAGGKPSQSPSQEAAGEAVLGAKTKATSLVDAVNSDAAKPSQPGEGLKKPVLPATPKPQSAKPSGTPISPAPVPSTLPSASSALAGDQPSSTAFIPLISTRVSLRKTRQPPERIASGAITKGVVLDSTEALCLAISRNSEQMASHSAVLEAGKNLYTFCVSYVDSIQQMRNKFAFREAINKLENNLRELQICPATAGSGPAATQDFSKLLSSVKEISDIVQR
T1 sequence (Q9Y6R4 whole entry): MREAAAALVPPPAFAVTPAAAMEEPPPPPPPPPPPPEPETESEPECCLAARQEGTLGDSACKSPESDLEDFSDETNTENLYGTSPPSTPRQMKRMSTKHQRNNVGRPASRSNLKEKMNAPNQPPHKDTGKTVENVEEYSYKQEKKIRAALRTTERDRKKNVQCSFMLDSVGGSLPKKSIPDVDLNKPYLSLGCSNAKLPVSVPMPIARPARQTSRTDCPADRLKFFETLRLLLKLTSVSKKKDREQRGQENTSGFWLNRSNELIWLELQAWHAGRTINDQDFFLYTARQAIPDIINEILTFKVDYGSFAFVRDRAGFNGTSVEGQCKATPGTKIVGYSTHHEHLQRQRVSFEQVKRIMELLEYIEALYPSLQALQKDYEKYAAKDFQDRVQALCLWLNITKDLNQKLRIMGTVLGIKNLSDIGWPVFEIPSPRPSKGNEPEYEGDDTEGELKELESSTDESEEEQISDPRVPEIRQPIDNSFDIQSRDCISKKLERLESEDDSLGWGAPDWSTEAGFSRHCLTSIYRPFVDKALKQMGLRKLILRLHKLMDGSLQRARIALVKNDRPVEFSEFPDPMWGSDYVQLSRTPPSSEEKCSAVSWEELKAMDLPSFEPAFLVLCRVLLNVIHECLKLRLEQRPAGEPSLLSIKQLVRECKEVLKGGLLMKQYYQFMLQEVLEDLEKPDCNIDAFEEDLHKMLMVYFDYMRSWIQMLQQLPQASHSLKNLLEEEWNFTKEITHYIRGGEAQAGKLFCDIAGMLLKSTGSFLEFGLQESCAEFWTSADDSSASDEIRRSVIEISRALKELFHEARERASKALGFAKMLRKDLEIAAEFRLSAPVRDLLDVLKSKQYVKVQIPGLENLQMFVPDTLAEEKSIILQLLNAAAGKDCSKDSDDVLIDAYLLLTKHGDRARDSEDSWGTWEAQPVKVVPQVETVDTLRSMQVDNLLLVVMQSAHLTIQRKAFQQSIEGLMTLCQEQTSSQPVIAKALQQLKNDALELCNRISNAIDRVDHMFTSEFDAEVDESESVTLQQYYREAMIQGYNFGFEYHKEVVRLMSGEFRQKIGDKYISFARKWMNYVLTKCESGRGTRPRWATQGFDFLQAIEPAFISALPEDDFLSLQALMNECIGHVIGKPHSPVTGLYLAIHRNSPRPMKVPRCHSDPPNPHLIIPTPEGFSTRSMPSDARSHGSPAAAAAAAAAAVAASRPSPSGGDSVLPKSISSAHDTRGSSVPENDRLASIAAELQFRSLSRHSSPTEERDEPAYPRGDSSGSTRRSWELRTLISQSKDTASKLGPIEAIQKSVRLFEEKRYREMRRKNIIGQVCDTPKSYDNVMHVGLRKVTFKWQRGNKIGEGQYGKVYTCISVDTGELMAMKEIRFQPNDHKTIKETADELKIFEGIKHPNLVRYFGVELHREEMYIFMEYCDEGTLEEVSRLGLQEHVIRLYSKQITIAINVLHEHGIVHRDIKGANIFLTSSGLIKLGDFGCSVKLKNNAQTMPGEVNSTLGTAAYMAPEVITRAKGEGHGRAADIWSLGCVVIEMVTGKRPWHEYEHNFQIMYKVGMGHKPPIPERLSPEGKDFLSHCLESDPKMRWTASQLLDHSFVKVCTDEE
T2 sequence (P53779 whole entry): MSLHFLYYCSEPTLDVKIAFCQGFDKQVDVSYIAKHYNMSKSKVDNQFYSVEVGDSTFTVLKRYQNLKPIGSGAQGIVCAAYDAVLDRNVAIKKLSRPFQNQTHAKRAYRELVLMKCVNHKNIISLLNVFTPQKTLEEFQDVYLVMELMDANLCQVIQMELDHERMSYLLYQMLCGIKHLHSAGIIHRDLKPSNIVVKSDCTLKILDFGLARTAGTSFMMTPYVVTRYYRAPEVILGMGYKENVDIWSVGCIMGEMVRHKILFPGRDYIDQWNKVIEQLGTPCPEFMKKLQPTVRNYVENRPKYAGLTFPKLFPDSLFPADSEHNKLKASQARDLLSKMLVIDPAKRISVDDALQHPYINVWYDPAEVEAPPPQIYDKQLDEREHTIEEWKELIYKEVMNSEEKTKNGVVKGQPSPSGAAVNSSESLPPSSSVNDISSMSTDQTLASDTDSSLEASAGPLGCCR
T6 sequence (P61075 whole entry): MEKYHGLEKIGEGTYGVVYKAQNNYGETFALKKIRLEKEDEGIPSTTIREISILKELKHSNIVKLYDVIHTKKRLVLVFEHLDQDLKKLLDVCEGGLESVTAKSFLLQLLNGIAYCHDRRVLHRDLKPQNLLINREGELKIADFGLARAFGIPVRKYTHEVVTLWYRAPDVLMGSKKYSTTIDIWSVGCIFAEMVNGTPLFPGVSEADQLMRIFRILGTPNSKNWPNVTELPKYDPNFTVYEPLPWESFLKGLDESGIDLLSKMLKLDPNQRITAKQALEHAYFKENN

Regarding `Cc1ccc(C(=O)Nc2ccc(CN3CCN(C)CC3)c(C(F)(F)F)c2)cc1C#Cc1cnc2c(Nc3cnn(C)c3)cccn12` [Example 1, 4-methyl-3-((8-((1-methyl-1H-pyrazol-4-yl)amino)imidazo[1,2-a]pyridin-3-yl)ethynyl)-N-(4-((4-methylpiperazin-1-yl)methyl)-3-(trifluoromethyl)phenyl)benzamide], the remaining binding at 1 µM in [1] was found to be 70%; in test [2], 19%; in test [3], 8%; in test [4], 5%; in test [5], 0%; in test [6], 87%. Also, the remaining binding at 1 µM was 0% in test [7]; 0% in test [8]; 1% in test [9]; 90% in [10]; 1% in [11] (ABL1 (F317I)-nonphosphorylated); 3% in test [11] (ABL1 (F317I)-phosphorylated).

Regarding `Cc1ccc(NC(=O)C2(C(=O)Nc3ccc(F)cc3)CC2)cc1C#Cc1cnc2c(Nc3cnn(C(C)C)c3)cccn12` [Example 78], the remaining binding at 1 µM in test [1] stood at 90%; in test [2] it was 100%; in [3] it was 94%; in [4], 100%; in [5], 94%; in test [6] it was 93%. Besides, the remaining binding at 1 µM in [7] was found to be 100%; in test [8], 100%; in test [9], 100%; in [10] it was 100%; in test [11] (ABL1 (F317I)-nonphosphorylated), 36%; in test [11] (ABL1 (F317I)-phosphorylated), 72%.

As for `Cc1cn(-c2cc(NC(=O)c3ccc(C)c(C#Cc4cnc5c(Nc6cnn(C)c6)cccn45)c3)cc(C(F)(F)F)c2)cn1` [Example 12, 4-methyl-N-(3-(4-methyl-1H-imidazol-1-yl)-5-(trifluoromethyl)phenyl)-3-((8-((1-methyl-1H-pyrazol-4-yl)amino)imidazo[1,2-a]pyridin-3-yl)ethynyl)benzamide], the remaining binding at 1 µM turned out to be 92% in test [1]; 98% in test [2]; 75% in test [3]; 27% in [4]; 55% in test [5]; 100% in [6]. In addition, the remaining binding at 1 µM in [7] was found to be 32%; in [8], 1%; in [9], 20%; in [10], 91%; in test [11] (ABL1 (F317I)-nonphosphorylated), 10%; in test [11] (ABL1 (F317I)-phosphorylated), 28%.
